Data on five compounds can be found in US5591613A, “Method for the preparation of D-arginine and L-ornithine” (Degussa Aktiengesellschaft, priority 1990, dated 1997).

Assay [1] concerns the target T1, Calf liver arginase (Bos taurus, UniProt Q2KJ64).
T1 construct: purchased Boehringer Mannheim (Mannheim, F.R.G.)
T1 sequence (Q2KJ64 1-322): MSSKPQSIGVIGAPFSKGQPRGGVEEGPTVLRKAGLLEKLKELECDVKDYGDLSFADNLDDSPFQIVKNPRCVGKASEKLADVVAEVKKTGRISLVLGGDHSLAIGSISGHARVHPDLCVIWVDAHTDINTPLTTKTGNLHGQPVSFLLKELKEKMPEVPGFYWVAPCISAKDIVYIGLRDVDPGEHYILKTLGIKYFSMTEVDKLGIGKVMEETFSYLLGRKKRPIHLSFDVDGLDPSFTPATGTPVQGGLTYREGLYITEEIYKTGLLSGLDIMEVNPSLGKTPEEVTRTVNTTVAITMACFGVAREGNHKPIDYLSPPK
The assay can be described thus: Arginase-catalysed hydrolysis of L-Arg to L-Orn, initial rates in batch, with and without inhibitors. In kind it is biochemical. The settings on record: for Vo Arginase / conversion after 2 hrs.: 0.75 M L-Arg; for Vo Arginase / conversion after 2 hrs. / conversion (%) after 1.0 hrs / conversion (%) after 1.5 hrs / conversion (%) after 2.0 hrs / ro, arginase: starting pH 11.5; for conversion (%) after 1.0 hrs / conversion (%) after 1.5 hrs / conversion (%) after 2.0 hrs / ro, arginase: 0.5 M L-Arg; for ro, arginase %: relative to 100:0; for kind of inhibition / substrate behaviour: from conversion-time profiles (FIG. 3). As to the method:
In further experiments, the materials used were: Calf liver arginase (activity 110 U/mg) which was obtained from Boehringer Mannheim (Mannheim, F.R.G.). Amino acids were from Rexim (Ham, France). MnSO4, MnO2, and ascorbic acid were from E. Merck (Darmstadt, F.R.G.).
(§1) Batch conditions used were: Starting pH value, except for the activity-pH curve, was either 11.5, the natural value for L-Arg in water, or 9.5, adjusted from pH 11.5 with conc. HCl. The temperature was 25° C. unless otherwise noted. Typical concentrations of L-Arg were 0.75M. Unless otherwise mentioned, [Mn2^+ ]=5-10^-4 M. Reaction progress was followed by HPLC (amino column, mobile phase: phosphate buffer (pH 6.4)/acetonitrile).
Kinetic data was obtained as follows: Initial rate data were analyzed by a non-linear regression method (Marquardt routine) with the program OPTI (U. Giesecke, KFA J ulich).
A linear slope of 1/[S] vs. [I] plot distinguishes a purely competitive inhibition mechanism from a partially competitive one. Simultaneously, the apparent and the intrinsic KM -value are proportional to [I] according to equation (5) from which the inhibition constant KI can be calculated
Since the runs have been conducted at [LArg]=50 mM=2·Km,intr,Vo =Vmax ·2·KM,intr /(KM,intr (3+[I]/KI))=Vmax ·2/(3+[I]/KI). At [I]=KI, Vo =Vmax 2/(3+1)=Vmax /2. So, KI can be calcuated with sufficient accuracy from a Vo vs. [I] plot such as FIG. 4. […] In this work, however, maximum product concentration was sought for optimal space-time-yield and work-up efficiency.

A further assay concerns the target arginase. To be noted: literature value; cited from earlier work.
Assay [2] deals with T1, Calf liver arginase. The assay can be described thus: Activation of arginase by Mn2+ ions. In kind it is biochemical. Here is the method: as §1
Activation by Mn^2+ ions and MnO2 precipitation: An optimum concentration of the activator Mn^2+ of 0.5 mM was found. At the prevalent alkaline pH values, MnO2 from the oxidation of Mn^2+ precipitates. To suppress oxidation, ascorbic acid was added as an reducing agent.

The next assay deals with ox liver arginase. The settings on record: literature; cited from earlier work.

Broadly, the Ki is a measure of affinity in units of concentration, obtained from inhibition or displacement. On to `NCCCC[C@H](N)C(=O)O` [L-Lys, reference compound], for which, on Calf liver arginase [1] (inhibitor 0.1 M), the “Vo Arginase” value came to 0.129 mol/L/h and the “conversion after 2 hrs.” value came to 34.3%. For the same compound, on Calf liver arginase [1] (inhibitor 0.2 M), the “Vo Arginase” value came to 0.120 mol/L/h and the “conversion after 2 hrs.” value worked out at 32.1%. On Calf liver arginase [1] (inhibitor 0.4 M), the “Vo Arginase” value stood at 0.086 mol/L/h and the “conversion after 2 hrs.” value is 22.9%. Also, at Calf liver arginase [1] (inhibitor 0.5 M), the “Vo Arginase” value worked out at 0.075 mol/L/h and the “conversion after 2 hrs.” value was determined as 19.9%. Also, at Calf liver arginase [1] (inhibitor 0.75 M), the “Vo Arginase” value is 0.066 mol/L/h and the “conversion after 2 hrs.” value was determined as 17.5%. Further, at Calf liver arginase [1] (read-out: Vo Arginase (%)), the activity at 100000 µM is 85.3%, the activity at 200000 µM was 79.9%, the activity at 400000 µM is 57% and the activity at 500000 µM came to 49.5%. Besides, the activity at 750000 µM on Calf liver arginase [1] (read-out: Vo Arginase (%)) was found to be 43.5%. The Ki on arginase is 1300 µM.

Consider `N=C(N)NCCC[C@@H](N)C(=O)O` [D-Arg, D-arginine], for which, at Calf liver arginase [1] (Ratio L/D-Arg 50:50 (DL)), the “conversion (%) after 1.0 hrs” value was found to be 15.6%; the “conversion (%) after 1.5 hrs” value amounted to 19.4%; the “conversion (%) after 2.0 hrs” value was 26.4%; the “ro, arginase” value is 0.097 mol/L/h. Also, the “ro, arginase %” value on Calf liver arginase [1] (Ratio L/D-Arg 50:50 (DL)) was 59.5%. Also, on Calf liver arginase [1] (Ratio L/D-Arg 60:40), the “conversion (%) after 1.0 hrs” value came to 22.2%; the “conversion (%) after 1.5 hrs” value was 32.2%; the “conversion (%) after 2.0 hrs” value turned out to be 35.4%; the “ro, arginase” value came out at 0.1376 mol/L/h. Besides, on Calf liver arginase [1] (Ratio L/D-Arg 60:40), the “ro, arginase %” value was found to be 73.6%. At Calf liver arginase [1] (Ratio L/D-Arg 70:30), the “conversion (%) after 1.0 hrs” value is recorded as 24.6%; the “conversion (%) after 1.5 hrs” value is on record as 31.8%; the “conversion (%) after 2.0 hrs” value was found to be 35.4%; the “ro, arginase” value worked out at 0.1380 mol/L/h. Besides, the “ro, arginase %” value at Calf liver arginase [1] (Ratio L/D-Arg 70:30) stood at 73.8%. Moreover, at Calf liver arginase [1] (Ratio L/D-Arg 85:15), the “conversion (%) after 1.0 hrs” value is 25.1%; the “conversion (%) after 1.5 hrs” value was 34.8%; the “conversion (%) after 2.0 hrs” value is 40.2%; the “ro, arginase” value worked out at 0.150 mol/L/h. In addition, the “ro, arginase %” value on Calf liver arginase [1] (Ratio L/D-Arg 85:15) is listed as 80.3%. Besides, the “kind of inhibition / substrate behaviour” value at Calf liver arginase [1] is “neither a substrate of arginase nor a non-competitive inhibitor”.

`NCCC[C@H](N)C(=O)O` [L-Orn, L-ornithine]: the inhibition constant (Ki) on arginase was 1300 µM.

For the compound `[Mn+2]` [Mn^2+], on Calf liver arginase [2], the “optimum concentration of the activator” value was 0.5 mM.

The term Km denotes the substrate concentration at which the rate is half of its maximum. `N=C(N)NCCC[C@H](N)C(=O)O` [L-Arg, L-arginine]: the “kind of inhibition / substrate behaviour” value at Calf liver arginase [1] is on record as “not a substrate inhibitor”. The Vmax at Calf liver arginase [1] (nonlinear regression of initial rate data with L-Arg) was 459 Units (=μmol/(min·mg)). Moreover, the Km was 29 mM in the assay with ox liver arginase and 4 mM in the assay on arginase.
